Test results published in US9376429B2, “Sodium channel blockers, preparation method thereof and use thereof” (Daewoong Pharmaceutical Co., Ltd., priority 2012, dated 2016).

Molecular target: T1, sodium ion channel (Nav1.7) (Homo sapiens, UniProt Q15858)
T1 construct: host or cells: HEK293
Assay: Blocking effect against sodium ion channel (Nav1.7), IonFlux16 auto patch clamp, hNav1.7 HEK293 cells
Type: cell-based
Conditions: peak current after 50 seconds treatment, eight concentrations
Procedure, shortened: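 HEK293 cells stably expressing human Nav1.7 were recorded by IonFlux16 automated patch clamp in extracellular solution (pH 7.45, final DMSO ≤0.3%). Peak current was measured after 50 s exposure to each of eight compound concentrations and expressed as percent inhibition relative to pre-compound current.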

T1 sequence (Q15858 whole entry): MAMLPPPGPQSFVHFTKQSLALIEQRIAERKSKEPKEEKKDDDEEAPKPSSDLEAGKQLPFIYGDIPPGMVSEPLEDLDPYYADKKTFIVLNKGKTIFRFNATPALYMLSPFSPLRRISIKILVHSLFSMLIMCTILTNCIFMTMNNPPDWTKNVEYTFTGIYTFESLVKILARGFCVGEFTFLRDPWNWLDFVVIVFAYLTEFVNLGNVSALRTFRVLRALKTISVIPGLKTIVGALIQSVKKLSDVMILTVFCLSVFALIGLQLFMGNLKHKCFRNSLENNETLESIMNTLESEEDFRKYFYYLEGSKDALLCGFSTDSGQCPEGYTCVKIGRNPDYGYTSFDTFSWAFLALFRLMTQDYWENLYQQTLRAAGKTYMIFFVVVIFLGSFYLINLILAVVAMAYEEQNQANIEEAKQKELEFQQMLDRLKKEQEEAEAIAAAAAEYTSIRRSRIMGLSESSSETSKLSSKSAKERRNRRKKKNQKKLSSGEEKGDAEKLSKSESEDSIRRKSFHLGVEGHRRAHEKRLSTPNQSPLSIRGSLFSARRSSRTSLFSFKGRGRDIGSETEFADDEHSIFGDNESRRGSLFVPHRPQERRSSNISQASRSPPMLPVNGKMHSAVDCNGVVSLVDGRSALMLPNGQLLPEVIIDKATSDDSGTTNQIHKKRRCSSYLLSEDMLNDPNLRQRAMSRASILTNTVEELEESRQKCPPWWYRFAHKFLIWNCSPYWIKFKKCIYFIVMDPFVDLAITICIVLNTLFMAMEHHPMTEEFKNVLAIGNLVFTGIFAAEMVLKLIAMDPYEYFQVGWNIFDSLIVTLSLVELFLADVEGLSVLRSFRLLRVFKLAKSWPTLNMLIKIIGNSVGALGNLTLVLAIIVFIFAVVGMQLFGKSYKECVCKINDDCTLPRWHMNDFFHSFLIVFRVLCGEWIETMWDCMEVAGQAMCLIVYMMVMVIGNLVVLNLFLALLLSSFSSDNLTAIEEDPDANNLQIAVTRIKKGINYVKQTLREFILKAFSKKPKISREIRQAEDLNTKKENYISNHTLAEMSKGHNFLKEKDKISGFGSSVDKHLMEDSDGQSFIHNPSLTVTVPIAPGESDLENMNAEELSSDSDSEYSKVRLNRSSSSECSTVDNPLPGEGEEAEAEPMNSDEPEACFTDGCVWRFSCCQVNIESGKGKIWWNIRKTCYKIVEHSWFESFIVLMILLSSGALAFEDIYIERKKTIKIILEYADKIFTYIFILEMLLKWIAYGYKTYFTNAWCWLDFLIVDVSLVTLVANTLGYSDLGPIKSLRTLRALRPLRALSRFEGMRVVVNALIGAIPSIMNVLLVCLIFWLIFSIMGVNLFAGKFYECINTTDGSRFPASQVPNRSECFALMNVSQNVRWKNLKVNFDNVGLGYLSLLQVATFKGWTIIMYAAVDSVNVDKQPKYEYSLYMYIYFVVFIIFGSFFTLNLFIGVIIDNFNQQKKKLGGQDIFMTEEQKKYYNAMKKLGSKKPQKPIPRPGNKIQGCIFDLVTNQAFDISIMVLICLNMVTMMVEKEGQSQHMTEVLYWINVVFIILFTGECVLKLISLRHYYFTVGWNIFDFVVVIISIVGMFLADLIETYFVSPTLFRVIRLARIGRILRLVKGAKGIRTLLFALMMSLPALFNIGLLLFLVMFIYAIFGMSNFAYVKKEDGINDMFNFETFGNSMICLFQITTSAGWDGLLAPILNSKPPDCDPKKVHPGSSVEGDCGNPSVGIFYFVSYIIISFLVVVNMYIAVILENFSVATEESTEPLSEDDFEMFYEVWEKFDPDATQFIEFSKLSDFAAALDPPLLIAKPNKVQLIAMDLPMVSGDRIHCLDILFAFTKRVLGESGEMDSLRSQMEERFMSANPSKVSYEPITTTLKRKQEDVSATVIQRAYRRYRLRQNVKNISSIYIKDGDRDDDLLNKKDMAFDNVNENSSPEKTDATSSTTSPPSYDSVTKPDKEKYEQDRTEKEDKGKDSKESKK

| IC50 | Structure (SMILES) |
| --- | --- |
| > 0.1 µM | N#Cc1cc(S(=O)(=O)Nc2cscn2)ccc1Oc1cnc(-c2cccc(F)c2)cc1-c1cccnc1 [Example 84, 3-cyano-4-((6′-(3-fluorophenyl)-[3,4′-bipyridin]-3′-yl)oxy)-N-(thiazol-4-yl)benzenesulfonamide] |
| > 0.1 µM | N#Cc1cc(S(=O)(=O)Nc2cscn2)ccc1Oc1cnc(-c2ccc(F)c(F)c2)cc1-c1cccnc1 [Example 85, 3-cyano-4-((6′-(3,4-difluorophenyl)-[3,4′-bipyridin]-3′-yl)oxy)-N-(thiazol-4-yl)benzenesulfonamide] |
| > 0.1 µM | N#Cc1cc(S(=O)(=O)Nc2cscn2)ccc1Oc1cnc(-c2ccc(C(F)(F)F)c(F)c2)cc1-c1cccnc1 [Example 86, 3-cyano-4-((6′-(3-fluoro-4-(trifluoromethyl)phenyl)-[3,4′-bipyridin]-3′-yl)oxy)-N-(thiazol-4-yl)benzenesulfonamide] |
| > 0.1 µM | O=S(=O)(Nc1cscn1)c1cc(F)c(Oc2cnc(-c3cccc(F)c3)cc2-c2cccnc2)cc1F [Example 87, 2,5-difluoro-4-((6′-(3-fluorophenyl)-[3,4′-bipyridin]-3′-yl)oxy)-N-(thiazol-4-yl)benzenesulfonamide] |
| > 0.1 µM | O=S(=O)(Nc1cscn1)c1cc(F)c(Oc2cnc(-c3ccc(F)c(F)c3)cc2-c2cccnc2)cc1F [Example 88, 4-((6′-(3,4-difluorophenyl)-[3,4′-bipyridin]-3′-yl)oxy)-2,5-difluoro-N-(thiazol-4-yl)benzenesulfonamide] |
| > 0.1 µM | O=S(=O)(Nc1cscn1)c1cc(F)c(Oc2cnc(-c3ccc(C(F)(F)F)c(F)c3)cc2-c2cccnc2)cc1F [Example 89, 2,5-difluoro-4-((6′-(3-fluoro-4-(trifluoromethyl)phenyl)-[3,4′-bipyridin]-3′-yl)oxy)-N-(thiazol-4-yl)benzenesulfonamide] |
| > 0.1 µM | N#Cc1cc(S(=O)(=O)Nc2cscn2)ccc1Oc1cnc(-c2ccc(F)cc2)cc1-c1cn[nH]c1 [Example 90, 3-cyano-4-((6-(4-fluorophenyl)-4-(1H-pyrazol-4-yl)pyridin-3-yl)oxy)-N-(thiazol-4-yl)benzenesulfonamide] |
| > 0.1 µM | N#Cc1cc(S(=O)(=O)Nc2cscn2)ccc1Oc1cnc(-c2ccc(F)c(F)c2)cc1-c1cn[nH]c1 [Example 91, 3-cyano-4-((6-(3,4-difluorophenyl)-4-(1H-pyrazol-4-yl)pyridin-3-yl)oxy)-N-(thiazol-4-yl)benzenesulfonamide] |
| > 0.1 µM | N#Cc1cc(S(=O)(=O)Nc2cscn2)ccc1Oc1cnc(-c2cccc(F)c2)cc1-c1cncnc1 [Example 92, 3-cyano-4-((6-(3-fluorophenyl)-4-(pyrimidin-5-yl)pyridin-3-yl)oxy)-N-(thiazol-4-yl)benzenesulfonamide] |
| > 0.1 µM | N#Cc1cc(S(=O)(=O)Nc2cscn2)ccc1Oc1cnc(-c2ccc(F)c(F)c2)cc1-c1cncnc1 [Example 93, 3-cyano-4-((6-(3,4-difluorophenyl)-4-(pyrimidin-5-yl)pyridin-3-yl)oxy)-N-(thiazol-4-yl)benzenesulfonamide] |
| > 0.1 µM | N#Cc1cc(S(=O)(=O)Nc2cscn2)ccc1Oc1cnc(-c2ccc(C(F)(F)F)c(F)c2)cc1-c1cncnc1 [Example 94, 3-cyano-4-((6-(3-fluoro-4-(trifluoromethyl)phenyl)-4-(pyrimidin-5-yl)pyridin-3-yl)oxy)-N-(thiazol-4-yl)benzenesulfonamide] |
| > 0.1 µM | O=S(=O)(Nc1cscn1)c1cc(F)c(Oc2cnc(-c3cccc(F)c3)cc2-c2cncnc2)cc1F [Example 95, 2,5-difluoro-4-((6-(3-fluorophenyl)-4-(pyrimidin-5-yl)pyridin-3-yl)oxy)-N-(thiazol-4-yl)benzenesulfonamide] |
| > 0.1 µM | O=S(=O)(Nc1cscn1)c1cc(F)c(Oc2cnc(-c3ccc(F)c(F)c3)cc2-c2cncnc2)cc1F [Example 96, 4-((6-(3,4-difluorophenyl)-4-(pyrimidin-5-yl)pyridin-3-yl)oxy)-2,5-difluoro-N-(thiazol-4-yl)benzenesulfonamide] |
| > 0.1 µM | O=S(=O)(Nc1cscn1)c1cc(F)c(Oc2cnc(-c3ccc(C(F)(F)F)c(F)c3)cc2-c2cncnc2)cc1F [Example 97, 2,5-difluoro-4-((6-(3-fluoro-4-(trifluoromethyl)phenyl)-4-(pyrimidin-5-yl)pyridin-3-yl)oxy)-N-(thiazol-4-yl)benzenesulfonamide] |
| > 0.1 µM | O=S(=O)(Nc1cscn1)c1cc(Cl)c(Oc2cnc(-c3ccc(F)c(F)c3)cc2-c2cn[nH]c2)cc1F [Example 98, 5-chloro-4-((6-(3,4-difluorophenyl)-4-(1H-pyrazol-4-yl)pyridin-3-yl)oxy)-2-fluoro-N-(thiazol-4-yl)benzenesulfonamide] |
| > 0.1 µM | O=S(=O)(Nc1cscn1)c1cc(Cl)c(Oc2cnc(-c3cccc(F)c3)cc2-c2cncc(N3CCCC3)c2)cc1F [Example 99, 5-chloro-2-fluoro-4-((6′-(3-fluorophenyl)-5-(pyrrolidin-1-yl)-[3,4′-bipyridin]-3′-yl)oxy)-N-(thiazol-4-yl)benzenesulfonamide] |
| > 0.1 µM | O=S(=O)(Nc1cscn1)c1cc(Cl)c(Oc2cnc(-c3cccc(F)c3)cc2-c2cn(-c3cccnc3)cn2)cc1F [Example 100, 5-chloro-2-fluoro-4-((6-(3-fluorophenyl)-4-(1-(pyridin-3-yl)-1H-imidazol-4-yl)pyridin-3-yl)oxy)-N-(thiazol-4-yl)benzenesulfonamide] |
| 0.051 to 0.1 µM | O=S(=O)(Nc1cscn1)c1cc(Cl)c(Oc2cnc(-c3cccc(F)c3)cc2-c2ccnc(N3CCOCC3)c2)cc1F [Example 101, 5-chloro-2-fluoro-4-((6-(3-fluorophenyl)-2′-morpholino-[4,4′-bipyridin]-3-yl)oxy)-N-(thiazol-4-yl)benzenesulfonamide] |
| > 0.1 µM | O=S(=O)(Nc1cscn1)c1cc(Cl)c(Oc2cnc(-c3cccc(F)c3)cc2-c2ccnc(N3CCCCC3)c2)cc1F [Example 102, 5-chloro-2-fluoro-4-((6-(3-fluorophenyl)-2′-(piperidin-1-yl)-[4,4′-bipyridin]-3-yl)oxy)-N-(thiazol-4-yl)benzenesulfonamide] |
| > 0.1 µM | N#Cc1cc(S(=O)(=O)Nc2nccs2)ccc1Oc1ccc(-c2cccnc2F)nc1-c1ccoc1 [Example 103, 3-cyano-4-((2′-fluoro-6-(furan-3-yl)-[2,3′-bipyridin]-5-yl)oxy)-N-(thiazol-2-yl)benzenesulfonamide] |
| 0.051 to 0.1 µM | N#Cc1cc(S(=O)(=O)Nc2nccs2)ccc1Oc1ccc(-c2ccc(F)nc2)nc1-c1ccoc1 [Example 104, 3-cyano-4-((6′-fluoro-6-(furan-3-yl)-[2,3′-bipyridin]-5-yl)oxy)-N-(thiazol-2-yl)benzenesulfonamide] |
| > 0.1 µM | N#Cc1cc(S(=O)(=O)Nc2nccs2)ccc1Oc1ccc(-c2cccnc2)nc1-c1ccoc1 [Example 105, 3-cyano-4-((6-(furan-3-yl)-[2,3′-bipyridin]-5-yl)oxy)-N-(thiazol-2-yl)benzenesulfonamide] |
| > 0.1 µM | N#Cc1cc(S(=O)(=O)Nc2nccs2)ccc1Oc1ccc(-c2cncnc2)nc1-c1ccoc1 [Example 106, 3-cyano-4-((2-(furan-3-yl)-6-(pyrimidin-5-yl)pyridin-3-yl)oxy)-N-(thiazol-2-yl)benzenesulfonamide] |
